Laboratory results from patent US20070203212A1, “METHOD OF TREATING OSTEOARTHRITIS” (WARNER-LAMBERT COMPANY, priority 2002, published 2007).

How the values were obtained:
[1] = tested on: human recombinant IL-6/IL-6sR induced joint pain; assay: IL-6 with IL-6 soluble receptor induced joint pain in rat; type: in vivo
Description: It should be appreciated that in Biological Methods 1, 2, 4, and 5 below, hind paw weight bearing differentials between the paw of the limb having the control joint (in animals administered test compound vehicle only) and the paw of the limb having the contralateral test joint (in control or inducement animals administered test compound vehicle only and in treatment animals administered test compound dissolved in test compound vehicle) were determined using an incapacitance tester, model 2KG (Linton Instrumentation, Norfolk, United Kingdom). The incapacitance tester has a chamber on top with an outwardly sloping front wall that supports a rat's front limbs, and two weight sensing pads, one for each hind paw, that facilitates this determination. The hind paw weight bearing differentials were expressed in grams and calculated as follows: (the average weight in grams placed on the control limb minus the average weight in grams placed on the contralateral test limb for each of the inducement or treatment animals) minus (the average weight in grams placed on the control limb minus the average weight in grams placed on the contralateral test limb for each of the control animals). All results were statistically analyzed by comparing the average results for an induction or treatment group with the average result for its control group at the same time point using analysis of covariance (“ANCOVA”) followed by the Hoehberg's procedure and those with statistical significance had p<0.05 unless otherwise noted.
Human recombinant IL-6 (100 ng per rat; R&D Systems, Minneapolis, Minn.) was incubated at room temperature with human recombinant IL-6 soluble receptor (300 ng per rat; R&D Systems, Minneapolis, Minn.) in phosphate buffered saline (“PBS”) for 15 minutes prior to injection. Rats were anesthetized with 5% volume/volume (“v/v”) isoflurane gas and maintained with 2% v/v isoflurane gas. The anesthetized rats were given a single intra-articular injection of IL-6/WL-6sR through the infrapatellar ligament of the right knee in a volume of 50 μL. The contralateral control knee was injected with 50 μL of PBS. Administration of isoflurane gas was discontinued, and the rats became fully conscious about 5 minutes later.
Shifts in hind paw weight distribution from the right (arthritic) to the left (contralateral control) paws were utilized as an index of joint pain and as a measure of compound efficacy. An incapacitance tester (Model 2KG, Linton Instrumentation, UK) was employed for determination of hind paw weight distribution. Each data point is the mean of three, 5-second readings.
CI-1027 was dissolved in BPMC vehicle as described above. Baseline changes in hind paw weight distribution readings were determined one day prior to injection of IL-6/IL-6sR. On the day of the experiment (Day 0), a single dose of CI-1027 (10, 30 or 100 mg/kg) was given via oral gavage 3 hours prior to injection of IL-6/IL-6sR (n=10 rats per group). Changes in hind paw weight distribution were determined one, three, and six hours after injection of IL-6/IL-6sR.
In Table 4 below, data from the method of Biological Method 5 are expressed as a percent inhibition of a change in hind paw weight distribution ± the standard error of the mean. The percents inhibition were calculated as follows. Percent inhibition of a change in hind paw weight distribution [formula] wherein: ΔWC is the hind-paw weight differential between the healthy limb and the hrIL-6+ hrIL-6sR injected limb of the control animal group administered vehicle alone, as measured at time 1, 3, or 6 hours post injection; and
ΔWG is the hind-paw weight differential between the healthy limb and the hrIL-6+ hrIL-6sR injected limb of a treatment animal group as measured at time 1, 3, or 6 hours post injection.

[2] = tested on: carrageenan-induced thermal hyperalgesia; assay: Carrageenan-induced thermal hyperalgesia (CITH), paw withdrawal latency; type: in vivo, rat; details: single oral dose 30 mg/kg on Day 1, 4 hours post dose
Description: Male Sprague Dawley rats (200-300 g), obtained from Charles River, were housed in groups of 2 under a 12 hour light/dark cycle with food and water ad libitum. Animals were allowed to acclimate to the test room one hour prior to testing.
Thermal hyperalgesia was assessed using the rat plantar test (apparatus from Univ. California, San Diego) following a modified method of Hargreaves et al., 1988. Rats were habituated to the apparatus, which consisted of three perspex boxes that individually housed […] on an elevated glass table. A mobile radiant heat source (halogen lamp) was located under the glass table and focused onto the hind paw. Paw withdrawal latencies (PWL) were recorded in seconds (“s”). An automatic cut off point of 22.5 s was set to prevent tissue damage. The mean of 2-3 PWL was taken at each time point for both hind paws of each animal. The apparatus was calibrated to give a PWL of approximately 10 s before carrageenan administration.
After basal PWL were determined, animals receive an intraplantar 100 μL of 10 mg/mL) into the right hind paw. Lambda carrageenan (Sigma Chemical Co.) was dissolved in isotonic saline 5 minutes prior to injecting. PWL were reassessed following the same protocol 2 hours post carrageenan (this time point represented the start of peak hyperalgesia) to ascertain that hyperalgesia had developed. 6-(5-Carboxy-5-methyl-hexyloxy)-2,2-dimethyl-hexanoic acid, calcium salt was then administered orally via oral dosing needles 2.5 hours post carrageenan injection, and PWL were taken again at 30- or 60-minute intervals post drug administration for 6 hours.
Data consisted of the mean of 2-3 reads/paw for individual animals. Group data was the compiled individual means. Percent inhibition was calculated as follows for each time point: (mean drug treated−mean control)/(mean baseline−mean control)×100.

[3] = tested on: prostaglandin-F2a (PGF2a) expression; assay: PGF2a expression from calcium ionophore-stimulated rat basophilic leukemia cells; type: cell-based
[4] = tested on: leukotriene B4 (LTB4) expression; assay: LTB4 expression from calcium ionophore-stimulated rat basophilic leukemia cells; type: cell-based

SMILES: CC(C)(CCCCOCCCCC(C)(C)C(=O)[O-])C(=O)[O-].[Ca+2] [CI-1027, 6-(5-carboxy-5-methyl-hexyloxy)-2,2-dimethyl-hexanoic acid, calcium salt]
- inhibition of change in hind paw weight distribution ([1]; 10 mg/kg PO 3 hours before IL-6/IL-6sR injection, 1 hour post injection (FIG. 6)): 53±9%
- inhibition of change in hind paw weight distribution ([1]; 10 mg/kg PO 3 hours before injection, repeat experiment, blinded readings (FIG. 7)): 63±6%
- inhibition of change in hind paw weight distribution ([1]; 30 mg/kg PO 3 hours before IL-6/IL-6sR injection, 1 hour post injection (FIG. 6)): 74±8%
- inhibition of change in hind paw weight distribution ([1]; 30 mg/kg PO 3 hours before injection, repeat experiment, blinded readings (FIG. 7)): 71±10%
- inhibition of change in hind paw weight distribution ([1]; 100 mg/kg PO 3 hours before IL-6/IL-6sR injection, 1 hour post injection (FIG. 6)): 57±15%
- change in hind paw weight distribution ([1]; 10, 30, 100 mg/kg PO, 3 and 6 hours post injection (6 and 9 hours post administration)): No significant effect
- Inhibition of Pain (% versus control), IL-6 ([1]; single oral dose 30 mg/kg on Day 1, 4 hours post dose): 71 ± 10%
- Inhibition of Pain (% versus control), CITH (paw withdrawal latency) [2]: 65 ± 20%
- inhibition of PGF2a expression [3]: does not inhibit
- inhibition of LTB4 expression [4]: does not inhibit
